From ChEMBL document CHEMBL1157120, “The identification of indacaterol as an ultralong-acting inhaled beta2-adrenoceptor agonist” (J Med Chem, 2010)

Assays:
[1] = biological target: Beta-2 adrenergic receptor (Cavia porcellus, UniProt Q8K4Z4)
Description: Agonist activity at beta2 adrenergic receptor in guinea pig tracheal strip assessed as inhibition of electrically-induced bronchocontractile response after 30 mins

[2] = biological target: Albumin (Homo sapiens, UniProt P02768); assay: Binding affinity to human serum albumin by UV/HPLC analysis; assay type: ADME; conditions: isolated protein
[3] = biological target: T1, Beta-2 adrenergic receptor (Homo sapiens, UniProt P07550)
Description: Agonist activity at human beta2 adrenergic receptor assessed as increase in cAMP level by whole cell assay

[4] = biological target: T1, Beta-2 adrenergic receptor; assay: biochemical
Description: Displacement of [125I]cyanopindolol from human recombinant beta2 adrenergic receptor expressed in CHO cells by filtration assay

[5] = pH 7.4
Description: Chromatographic hydrophobicity index at 2 mg/ml at pH 7.4 by rapid gradient HPLC analysis

[6] = organism: Cavia porcellus; assay: Inhibition of serotonin-induced bronchoconstriction in guinea pig assessed as intrinsic duration of bronchodilatory activity at ED80
[7] = Fraction unbound in human plasma; assay type: ADME, cell-free
[8] = Intrinsic clearance in rat liver microsomes assessed per mg of protein at 1 uM after 10 to 30 mins by LC/MS analysis in presence of UDP-glucuronic acid; assay type: ADME, Microsome
[9] = Intrinsic clearance in rat liver microsomes assessed per mg of protein at 1 uM after 10 to 30 mins by LC/MS analysis in presence of NADPH; assay type: ADME, Microsome
[10] = Plasma protein binding in human at 1 to 2000 ng/mL after 3 hrs by liquid scintillation counting; assay type: ADME, cell-free; conditions: read-out: PPB (converted)

T1 sequence (P07550 whole entry): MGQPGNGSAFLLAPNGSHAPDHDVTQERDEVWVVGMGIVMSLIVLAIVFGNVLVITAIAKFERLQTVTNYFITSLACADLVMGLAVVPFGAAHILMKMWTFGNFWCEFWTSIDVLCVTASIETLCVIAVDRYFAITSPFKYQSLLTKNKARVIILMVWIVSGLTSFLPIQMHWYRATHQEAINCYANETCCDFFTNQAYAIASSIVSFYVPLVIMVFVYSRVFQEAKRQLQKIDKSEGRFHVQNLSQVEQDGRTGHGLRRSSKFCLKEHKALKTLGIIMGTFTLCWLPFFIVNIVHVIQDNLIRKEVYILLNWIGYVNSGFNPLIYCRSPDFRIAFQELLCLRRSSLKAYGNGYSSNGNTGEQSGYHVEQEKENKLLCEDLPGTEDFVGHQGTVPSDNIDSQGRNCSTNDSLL
Chain of Albumin (P02768 whole entry): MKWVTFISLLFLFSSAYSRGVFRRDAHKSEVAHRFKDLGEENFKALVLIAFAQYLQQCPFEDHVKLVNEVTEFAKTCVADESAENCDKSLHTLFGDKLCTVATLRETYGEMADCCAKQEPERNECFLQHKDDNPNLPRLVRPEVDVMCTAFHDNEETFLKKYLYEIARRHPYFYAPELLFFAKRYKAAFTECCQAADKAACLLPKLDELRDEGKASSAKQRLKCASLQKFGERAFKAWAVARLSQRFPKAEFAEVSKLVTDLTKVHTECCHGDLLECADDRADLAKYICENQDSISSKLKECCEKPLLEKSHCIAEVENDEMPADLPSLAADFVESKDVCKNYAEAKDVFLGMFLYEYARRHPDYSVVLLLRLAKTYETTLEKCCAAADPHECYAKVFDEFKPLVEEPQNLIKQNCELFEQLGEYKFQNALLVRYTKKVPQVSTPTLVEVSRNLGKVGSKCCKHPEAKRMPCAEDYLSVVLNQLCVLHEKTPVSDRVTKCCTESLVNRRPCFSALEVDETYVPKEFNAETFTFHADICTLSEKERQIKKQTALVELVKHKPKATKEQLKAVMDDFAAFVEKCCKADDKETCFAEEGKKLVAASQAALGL
Chain of Beta-2 adrenergic receptor (Cavia porcellus, UniProt Q8K4Z4) (Q8K4Z4 whole entry): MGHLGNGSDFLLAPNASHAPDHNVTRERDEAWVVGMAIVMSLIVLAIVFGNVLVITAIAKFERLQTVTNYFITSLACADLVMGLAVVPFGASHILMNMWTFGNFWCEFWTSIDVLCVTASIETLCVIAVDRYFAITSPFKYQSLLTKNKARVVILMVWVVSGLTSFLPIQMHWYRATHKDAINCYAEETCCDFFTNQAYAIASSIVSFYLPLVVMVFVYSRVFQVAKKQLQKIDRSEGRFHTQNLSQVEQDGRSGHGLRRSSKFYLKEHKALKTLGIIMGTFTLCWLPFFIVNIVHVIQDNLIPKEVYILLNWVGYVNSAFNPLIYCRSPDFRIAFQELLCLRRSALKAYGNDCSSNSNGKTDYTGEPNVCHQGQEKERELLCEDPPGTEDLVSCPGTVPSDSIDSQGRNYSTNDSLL

Structure (SMILES) | IC50 [1] [nM] | Activity [2] [%] | EC50 [3] [nM] | Ki [4] [nM] | CHI [5] | Time [6] [h] | fraction unbound [7] | microsomal CLint at 1 µM [8] [µL/min/mg] | microsomal CLint at 1 µM [9] [µL/min/mg] | fraction unbound at 3 h [10]
O=c1ccc2c([C@@H](O)CNC3Cc4ccccc4C3)ccc(O)c2[nH]1 | 0.83 | 63.8 | 5 | 218 | 38.2 |  |  |  |  | 
Cc1cc2c(cc1C)CC(NC[C@H](O)c1ccc(O)c3[nH]c(=O)ccc13)C2 | 48 | 89.8 | 39 | 522 | 54.9 |  |  |  |  | 
COc1cc2c(cc1OC)CC(NC[C@H](O)c1ccc(O)c3[nH]c(=O)ccc13)C2 | 2.3 | 59.5 | 18 | 342 | 32.4 |  |  |  |  | 
CCc1ccc(CC)c2c1CC(NC[C@H](O)c1ccc(O)c3[nH]c(=O)ccc13)C2 | 75 | 94 | 115 | 692 | 62.9 |  |  |  |  | 
CCc1cc2c(cc1CC)CC(NC[C@H](O)c1ccc(O[C@@H]3O[C@H](C(=O)O)[C@@H](O)[C@H](O)[C@H]3O)c3[nH]c(=O)ccc13)C2 |  |  |  | > 10000 |  |  |  |  |  | 
CCCc1cc2c(cc1CCC)CC(NC[C@H](O)c1ccc(O)c3[nH]c(=O)ccc13)C2 | 20 | 98.6 | 14 | 119 | > 70 |  |  |  |  | 
CCCCc1cc2c(cc1CCCC)CC(NC[C@H](O)c1ccc(O)c3[nH]c(=O)ccc13)C2 | > 1000 | 99.5 | 25 | 112 | > 70 |  |  |  |  | 
CC(C)(C)NCC(O)c1ccc(O)c(CO)c1 (centres undefined) [ALBUTEROL] |  | 29.9 |  |  | 21 |  |  |  |  | 
COc1ccc(C[C@@H](C)NC[C@H](O)c2ccc(O)c3[nH]c(=O)ccc23)cc1 [CARMOTEROL] | 0.3 | 57.1 | 0.76 | 3.19 | 37.7 |  |  |  |  | 
CCc1cc2c(cc1CC)CC(NC[C@H](O)c1ccc(O)c3[nH]c(=O)ccc13)C2 [INDACATEROL] |  | 95.7 | 11 | 76 | 59.7 | 24 | 0.043 | 378 | 76 | 0.049
OCc1cc(C(O)CNCCCCCCOCCCCc2ccccc2)ccc1O (centres undefined) [SALMETEROL] |  | 91.1 |  |  | 56.7 |  |  |  |  | 
